Experimental data published in patent US8507539B2, “Potassium channel blockers and uses thereof” (Bionomics Limited, priority 2008, dated 2013).

What follows are molecules tested against hKv1.3 (Homo sapiens, UniProt P22001) (assay: Whole-cell patch-clamp block of Kv1.3 current in CHO cells stably expressing hKv1.3). Conditions: CHO cells stably expressing hKv1.3, whole-cell patch clamp; reported as ranges; read-out: IC50 (Kv1.3).
hKv1.3, sequence (P22001 whole entry): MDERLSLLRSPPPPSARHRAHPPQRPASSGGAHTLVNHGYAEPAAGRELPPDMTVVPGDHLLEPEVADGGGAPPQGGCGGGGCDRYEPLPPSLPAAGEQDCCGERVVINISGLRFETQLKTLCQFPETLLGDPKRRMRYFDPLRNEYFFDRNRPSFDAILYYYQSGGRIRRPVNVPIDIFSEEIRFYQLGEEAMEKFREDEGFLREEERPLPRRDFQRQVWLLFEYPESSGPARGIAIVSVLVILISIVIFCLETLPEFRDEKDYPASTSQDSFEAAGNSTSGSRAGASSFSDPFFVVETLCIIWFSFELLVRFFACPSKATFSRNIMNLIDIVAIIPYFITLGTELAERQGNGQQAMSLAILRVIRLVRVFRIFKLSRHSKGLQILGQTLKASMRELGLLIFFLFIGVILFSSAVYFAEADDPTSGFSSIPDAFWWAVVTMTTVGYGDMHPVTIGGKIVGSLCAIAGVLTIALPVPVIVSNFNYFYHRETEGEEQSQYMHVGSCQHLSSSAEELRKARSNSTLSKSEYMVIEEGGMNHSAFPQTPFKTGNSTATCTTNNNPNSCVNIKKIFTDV
Assay type: cell-based
Method: The effectiveness of the generated compounds in blocking the Kv1.3 current was assayed on CHO cells stably expressing hKv1.3. Cells were grown in F12 Kaighns' medium supplemented with 10% fetal calf serum, 2 mM L-glutamine, 1 mM Na^+ pyruvate, 100 units/ml penicillin, 100 Fg/ml streptomycin and 500 μg/ml G418 (to keep them under selection pressure). Kv1.3 currents were measured using the whole-cell configuration of the patch-clamp technique and were evoked by 500 ms depolarising voltage pulses to +40 mV from a holding potential of −80 mV at 30 sec intervals. Cells were continuously bathed in Ringers solution containing (mM): 160 NaCl, 4.5 KCl, 2.5 CaCl2, 1 MgCl2, 10 HEPES, pH 7.4, 290-310 mOsm. The internal (pipette) solution contained (mM): 134 KF, 2 MgCl2, 10 HEPES, 10 EGTA (pH 7.2, 290-310 mOsm). Series resistance compensation (60-80%) was applied when the peak current amplitude exceeded 2 nA. Compounds initially dissolved in DMSO were diluted in bath solution (final DMSO concentration 0.5%) and applied directly to the recording chamber at increasing concentrations allowing ample time for steady state block to be achieved between each concentration. Each compound was tested at 4-5 different concentrations in triplicate. IC50 values were determined by fitting the average normalised reduction of the current integral to the Hill equation.
In the case of `CC(=O)c1c(OCCN2CCOCC2)c(OCCCc2ccccc2)c2ocnc2c1C` [Example 1i, 5-Acetyl-4-methyl-6-(2-morpholinoethoxy)-7-(3-phenylpropoxy)-benzo[d]oxazole], the IC50 is reported as 50 to 200 nM.
With `CC(=O)c1c(OCCN2CCOCC2)c(OCCC(C)c2ccc(F)cc2)c2ocnc2c1C` (stereo not drawn) [Example 2d, 5-Acetyl-7-[3-(4-fluorophenyl)butoxy]-4-methyl-6-(2-morpholin-4-yl-ethoxy)benzooxazole] the IC50 was < 50 nM.
`CC(=O)c1c(OCCc2ccccn2)c(OCCC(C)c2ccc(F)cc2)c2ocnc2c1C` (stereo not drawn) [Example 3, 5-Acetyl-7-[3-(4-fluorophenyl)butoxy]-4-methyl-6-(2-pyridin-2-yl-ethoxy)benzooxazole] was tested, and the IC50 was < 50 nM.
Molecule `CC(=O)c1c(OCCN(C)C)c(OCCC(C)c2ccc(F)cc2)c2ocnc2c1C` (stereo not drawn) [Example 4b, 5-Acetyl-7-[3-(4-fluorophenyl)butoxy]-4-methyl-6-(2-N,N-dimethylamino-ethoxy)benzooxazole] has an IC50 of 200 to 1000 nM.
`CC(=O)c1c(OCCn2ccnc2)c(OCCC(C)c2ccc(F)cc2)c2ocnc2c1C` (stereo not drawn) [Example 5, 5-Acetyl-7-[3-(4-fluorophenyl)butoxy]-4-methyl-6-(2-N-imidazolyl-ethoxy)benzooxazole] was tested, and the IC50 was < 50 nM.
With `CC(=O)c1c(OCCN2CCOCC2)c(OCCC(C)c2ccc(F)cc2)c2oc(C)nc2c1C` (stereo not drawn) [Example 6c, 5-Acetyl-7-[3-(4-fluorophenyl)butoxy]-2,4-dimethyl-6-(2-morpholin-4-yl-ethoxy)-benzooxazole] the IC50 was < 50 nM.
For `CC(=O)c1c(OCCN(C)C)c(OCCC(C)c2ccc(F)cc2)c2oc(C)nc2c1C` (stereo not drawn) [Example 7, 5-Acetyl-6-(2-dimethylaminoethoxy)-7-[3-(4-fluorophenyl)butoxy]-2,4-dimethyl-benzooxazole], the IC50 was 200 to 1000 nM.
For `CC(=O)c1c(OCCc2ccccn2)c(OCCC(C)c2ccc(F)cc2)c2oc(C)nc2c1C` (stereo not drawn) [Example 8, 5-Acetyl-7-[3-(4-fluorophenyl)butoxy]-2,4-dimethyl-6-(2-pyridin-2-yl-ethoxy)-benzooxazole], the IC50 was < 50 nM.
Work on `CC(=O)c1c(OCCc2cccc[n+]2[O-])c(OCCC(C)c2ccc(F)cc2)c2oc(C)nc2c1C` (stereo not drawn) [Example 9, 2-(2-(5-acetyl-7-(3-(4-fluorophenyl)butoxy)-2,4-dimethylbenzo[d]oxazol-6-yloxy)ethyl)pyridine 1-oxide] yielded an IC50 of 200 to 1000 nM.
`CC(=O)c1c(OCCn2ccnc2)c(OCCC(C)c2ccc(F)cc2)c2oc(C)nc2c1C` (stereo not drawn) [Example 10b, 5-Acetyl-7-[3-(4-fluorophenyl)butoxy]-6-(2-imidazol-1-yl-ethoxy)-2,4-dimethyl-benzooxazole] showed an IC50 of 50 to 200 nM.
`CC(=O)c1c(OCCn2nnc(N)n2)c(OCCC(C)c2ccc(F)cc2)c2oc(C)nc2c1C` (stereo not drawn) [Example 11a, 5-Acetyl-6-[2-(5-aminotetrazol-2-yl)-ethoxy]-7-[3-(4-fluorophenyl)butoxy]-2,4-dimethyl-benzooxazole] was tested, and the IC50 was < 50 nM.
`CC(=O)c1c(OCCn2nnnc2N)c(OCCC(C)c2ccc(F)cc2)c2oc(C)nc2c1C` (stereo not drawn) [Example 11b, 5-Acetyl-6-[2-(5-amino-tetrazol-1-yl)-ethoxy]-7-[3-(4-fluorophenyl)butoxy]-2,4-dimethyl-benzooxazole] showed an IC50 of 50 to 200 nM.
Work on `CC(=O)c1c(OCCN2CCC(=O)CC2)c(OCCC(C)c2ccc(F)cc2)c2oc(C)nc2c1C` (stereo not drawn) [Example 12, 1-(2-{5-Acetyl-7-[3-(4-fluorophenyl)butoxy]-2,4-dimethyl-benzooxazol-6-yloxy}-ethyl)-piperidin-4-one] yielded an IC50 of 50 to 200 nM.
`CC(=O)c1c(OCCN2CC[S+]([O-])CC2)c(OCCC(C)c2ccc(F)cc2)c2oc(C)nc2c1C` (stereo not drawn) [Example 14, 5-Acetyl-7-[3-(4-fluorophenyl)butoxy]-2,4-dimethyl-6-[2-(1-oxo-thiomorpholin-4-yl)-ethoxy]-benzooxazole] showed an IC50 of 50 to 200 nM.
With `CC(=O)c1c(OCCN2CCS(=O)(=O)CC2)c(OCCC(C)c2ccc(F)cc2)c2oc(C)nc2c1C` (stereo not drawn) [Example 15, 5-Acetyl-6-[2-(1,1-dioxo-thiomorpholin-4-yl)-ethoxy]-7-[3-(4-fluorophenyl)butoxy]-2,4-dimethyl-benzooxazole] the IC50 was < 50 nM.
Molecule `CC(=O)c1c(OCCn2ccnc2C)c(OCCC(C)c2ccc(F)cc2)c2oc(C)nc2c1C` (stereo not drawn) [Example 16, 5-Acetyl-7-[3-(4-fluorophenyl)butoxy]-2,4-dimethyl-6-[2-(2-methylimidazol-1-yl)-ethoxy]-benzooxazole] has an IC50 of 50 to 200 nM.
With `CC(=O)c1c(OCCN2CCC(C)(O)CC2)c(OCCC(C)c2ccc(F)cc2)c2oc(C)nc2c1C` (stereo not drawn) [Example 19, 5-Acetyl-7-[3-(4-fluorophenyl)butoxy]-6-[2-(4-hydroxy-4-methyl-piperidin-1-yl)-ethoxy]-2,4-dimethyl-benzooxazole] the IC50 was 50 to 200 nM.
Work on `CCN(CC)CCOc1c(C(C)=O)c(C)c2nc(C)oc2c1OCCC(C)c1ccc(F)cc1` (stereo not drawn) [Example 20, 5-Acetyl-6-(2-diethylamino-ethoxy)-7-[3-(4-fluorophenyl)butoxy]-2,4-dimethyl-benzooxazole] yielded an IC50 of 200 to 1000 nM.
With `CC(=O)c1c(OCC[n+]2ccc(N)cc2)c(OCCC(C)c2ccc(F)cc2)c2oc(C)nc2c1C` (stereo not drawn) [Example 21, 5-Acetyl-6-(2-(4-aminopyridin-1-ium)ethoxy)-7-[3-(4-fluorophenyl)butoxy]-2,4-dimethyl-benzo[d]oxazole chloride] the IC50 was > 1000 nM.
`CC(=O)c1c(OCCN)c(OCCC(C)c2ccc(F)cc2)c2oc(C)nc2c1C` (stereo not drawn) [Example 22, 5-Acetyl-6-(2-aminiumethoxy)-7-[3-(4-fluorophenyl)butoxy]-2,4-dimethyl-benzo[d]oxazole chloride] was tested, and the IC50 was 200 to 1000 nM.
Work on `CC(=O)c1c(OCCN=C(N(C)C)N(C)C)c(OCCC(C)c2ccc(F)cc2)c2oc(C)nc2c1C` (stereo not drawn) [Example 23, 5-Acetyl-6-(2-(N,N,N′,N′-tetramethylguanidinium)ethoxy)-7-[3-(4-fluorophenyl)butoxy]-2,4-dimethyl-benzo[d]oxazole chloride] yielded an IC50 of 200 to 1000 nM.
Molecule `CC(=O)c1c(OCCN2CCN(C)CC2)c(OCCC(C)c2ccc(F)cc2)c2oc(C)nc2c1C` (stereo not drawn) [Example 25] has an IC50 of 200 to 1000 nM.
With `CC(=O)c1c(OCCNC(C)(C)C)c(OCCC(C)c2ccc(F)cc2)c2oc(C)nc2c1C` (stereo not drawn) [Example 26, 5-Acetyl-6-(2-(N-tertbutylamino)ethoxy)-7-[3-(4-fluorophenyl)butoxy]-2,4-dimethyl-benzo[d]oxazole] the IC50 was 200 to 1000 nM.
`Cc1nc2c(C)c(C(C)O)c(OCCN3CCSCC3)c(OCCC(C)c3ccc(F)cc3)c2o1` (stereo not drawn) [Example 27, 4-(1-Hydroxyethyl)-7-[3-(4-fluorophenyl)butoxy]-2,4-dimethyl-6-(2-thiomorpholin-4-ylethoxy)-benzo[d]oxazole] was tested, and the IC50 was < 50 nM.
`CC(=O)c1c(OCCN2CCOCC2)c(OCCC(C)c2ccc(F)cc2)c2oc(C(F)(F)F)nc2c1C` (stereo not drawn) [Example 28c, 5-Acetyl-7-[3-(4-fluorophenyl)butoxy]-4-methyl-6-(2-morpholin-4-yl-ethoxy)-2-trifluoromethyl-benzooxazole] gave an IC50 of 50 to 200 nM.
`CC(=O)c1c(OCCc2ccccn2)c(OCCC(C)c2ccc(F)cc2)c2oc(C(F)(F)F)nc2c1C` (stereo not drawn) [Example 29, 5-Acetyl-7-[3-(4-fluorophenyl)butoxy]-4-methyl-6-(2-pyridin-2-yl-ethoxy)-2-trifluoromethyl-benzo[d]oxazole] showed an IC50 of 50 to 200 nM.
`CC(=O)c1c(OCCN2CCOCC2)c(OCCC(C)c2ccc(F)cc2)c2oc(C(F)F)nc2c1C` (stereo not drawn) [Example 30c, 5-Acetyl-7-[3-(4-fluorophenyl)butoxy]-6-(2-morphin-4-yl-ethoxy)-4-methyl-2-difluoromethyl-benzo[d]oxazole] gave an IC50 of 50 to 200 nM.
In the case of `CC(=O)c1c(OCCN2CCOCC2)c(OCCC(C)c2ccc(F)cc2)c2oc(C(C)C)nc2c1C` (stereo not drawn) [Example 32c, 5-Acetyl-7-[3-(4-fluorophenyl)butoxy]-2-isopropyl-4-methyl-6-(2-morpholin-4-O-ethoxy)-benzo[d]oxazole], the IC50 is reported as < 50 nM.
With `CC(=O)c1c(OCCN2CCCC(F)(F)C2)c(OCCC(C)c2ccc(F)cc2)c2oc(C(C)C)nc2c1C` (stereo not drawn) [Example 33b, 5-Acetyl-6-[2-(3,3-difluoropiperidin-1-yl)ethoxy]-7-[3-(4-fluorophenyl)butoxy]-2-isopropyl-4-methylbenzo[d]oxazole] the IC50 was 50 to 200 nM.
Molecule `CC(=O)c1c(OCCn2ccnc2C)c(OCCC(C)c2ccc(F)cc2)c2oc(C(C)C)nc2c1C` (stereo not drawn) [Example 34, 5-Acetyl-7-[3-(4-fluorophenyl)butoxy]-2-isopropyl-1-4-methyl-6-[2-(2-methyl-1H-imidazol-1-yl)ethoxy]-benzo[d]oxazole] has an IC50 of 200 to 1000 nM.
`CC(=O)c1c(OCCN2CCOCC2)c(OCCC(C)c2ccc(F)cc2)c2oc(C3CC3)nc2c1C` (stereo not drawn) [Example 35d, 5-Acetyl-7-[3-(4-fluorophenyl)butoxy]-2-cyclopropyl-4-methyl-6-(2-morpholin-4-yl-ethoxy)-benzo[d]oxazole] showed an IC50 of 50 to 200 nM.
`CC(=O)c1c(OCCN2CCOCC2)c(OCCCc2ccccc2)c2oc(C)nc2c1Cl` [Example 37j] showed an IC50 of 200 to 1000 nM.
`CC(=O)c1c(OCCN2CCOCC2)c(OCCC(C)c2ccc(F)cc2)c2oc(C)nc2c1Cl` (stereo not drawn) [Example 38h, 5-Acetyl-4-chloro-7-(3-(4-fluorophenyl)butoxy)-6-(2-(morpholin-4-yl)ethoxy)-2-methyl-benzo[d]oxazole] was tested, and the IC50 was 50 to 200 nM.
